Measurements as given in patent publication US6344571B2, “Water soluble analogs and prodrugs of paclitaxel” (Pharmachemie B.V., priority 1998, dated 2002).
In brackets after ≈: the same amount, converted by molar mass. Entries after “also recorded” stand apart in the source; their conditions may differ.

Tests used:
microtubule assembly = details: SAR studies, literature; cited from earlier work
[1] = SAR studies, literature; cited from earlier work
[2] = Water solubility (suspension in water or PBS-buffer, HPLC)
Experimental: Water Solubility: Paclitaxel or paclitaxel prodrugs (5, 6, 8, 11) were suspended in water or PBS-buffer (pH 7.4) until a concentration was reached of 2 mg/ml. The suspensions were sonicated for 15 minutes and centrifuged (13000 g) for 10 minutes (Nicolaou, K. C. et al. Nature 1993, 364, 464-466). The above fluid was analyzed, using HPLC. The paclitaxel (prodrug) concentration was determined using paclitaxel standards in methanol.
HPLC: Rheodyne injection valve (20 μl loop); Lichrospher 5RP18 column (200×3 mm, Chrompack); UV-detector (Model 759A, Applied Biosystems); eluent: CH3CN/MeOH/H2O: 5/1/4 in 10 mM NH4OAc (pH 5.0) (Willey, T. A. J. Chromatography 1993, 621, 231-238). The detection of the (pro)drugs was performed at 226 nm, where it is supposed that the extinction coefficients of paclitaxel and paclitaxel prodrugs are equal. The concentrations were determined by measuring the relative area of paclitaxel or the paclitaxel prodrugs.

[3] = Stability in PBS-buffer (pH 7.4), degradation to paclitaxel; assay type: physicochemical; details: PBS-buffer pH 7.4
Experimental: The paclitaxel prodrugs (5, 6, 8, 11) were dissolved in water, sonicated and centrifuged. 100 μl of the above fluid was mixed with 400 μl of plasma (heparin) or PBS-buffer (pH7.4), respectively, in such way that the concentration of the prodrug was about 0.5 mg/mL. […] After mixing for 2 minutes (using a vortex), this mixture was centrifuged (2 minutes, 13000 g) and 100 μl EtOAc was evaporated (30 minutes, in vacuo). The (pro)drugs were dissolved in 50 μl eluent and analyzed by HPLC (Longnecker, S. M. Cancer Treat Rep. 1987, 71, 53-59). The efficiency for the extraction of paclitaxel was about 80%.

[4] = Stability in human plasma, degradation to paclitaxel; assay type: in vitro ADME; details: for T1/2 Human Plasma: human plasma (heparin), 37° C., time in which 50% of the analog is degraded to paclitaxel
Experimental: The paclitaxel prodrugs (5, 6, 8, 11) were dissolved in water, sonicated and centrifuged. 100 μl of the above fluid was mixed with 400 μl of plasma (heparin) or PBS-buffer (pH7.4), respectively, in such way that the concentration of the prodrug was about 0.5 mg/mL. The plasma or PBS-buffer, respectively, was incubated at 37° C. and on different points in time (T=0, 0.5, 1, 4, 20, 48 hours) 50 μl was extracted with 150 μl of EtOAc. After mixing for 2 minutes (using a vortex), this mixture was centrifuged (2 minutes, 13000 g) and 100 μl EtOAc was evaporated (30 minutes, in vacuo). The (pro)drugs were dissolved in 50 μl eluent and analyzed by HPLC (Longnecker, S. M. Cancer Treat Rep. 1987, 71, 53-59). The efficiency for the extraction of paclitaxel was about 80%.

MCF7 Breast cancer = test: Antiproliferative SRB assay, MCF7; assay type: cell-based, human; details: 37° C. 72 h, vs untreated cells
Experimental: (§1) Determination of the IC50-values for the new synthesized prodrugs have been determined with a variety of cell lines and have been compared with the IC50-value of paclitaxel 1 (see table II) Compounds 1, 5, 8, 11,:
(§2) The following human tumor cell lines were used:
(§3) MCF7 is estrogen receptor ER+/Progesterone receptor PgR+ and EVSA-T is ER-/PgR-.
(§4) Prior to the experiments a myocoplasma test was carried out on all cell lines and found to be negative. All cell lines, except ETSA-T, were maintained in a continuous logarithmic culture in RPMI medium with Hepes and Phenol red supplemented with 10% bovine calf serum (BCS), penicillin 111 IU/ml, streptomycin 111 μg/ml, gentamycin 46 μg/ml and insulin 10.6 μg/ml. EVSA-T was maintained in DMEM with 5% BCS and antibiotics as described. The cells were mildly trypsinized for passage and for use in experiments.
(§5) The compounds of this invention were dissolved to a concentration of 177147 ng/ml as follows:
(§6) On day 0, 200 μl of trypsinized tumor cells (2*10^3 cells/well) were plated in 96-wells flatbottom microtiter plates (Costar, no. 3799, Badhoevedorp, The Netherlands). The plates were preincubated 24 hr at 37° C., 5% CO2 to allow the cells to adhere.
(§7) […] The final volume of column 3 was adjusted to 200 μl with PBS. Column 2 was used for the blank. To column 1 PBS was added to diminish interfering evaporation.
(§8) […] Subsequently the cells were fixed with 10% trichloroacetic acid in Milli Q water (Millipore, Etten Leur, The Netherlands) and placed at 4° C. for one hour.
(§9) After five washings with tap water, the cells were stained for at least 15 min. with 0.4% SRB, dissolved in 1% acetic acid, and subsequently washed with 1% acetic acid to remove the unbound stain. The plates were air dried and the bound protein was dissolved by using 150 μl 10 mmol/l tris base. The absorbance was read at 540 nm using an automatic microplate reader (Titertec, Flow Laboratories LtD., Irvine, Scotland). Data were used for construction of concentration-response curves and determination of the IC50-value.

EVSA-T Breast cancer = test: Antiproliferative SRB assay, EVSA-T; assay type: cell-based, human; details: 37° C. 72 h, vs untreated cells
Experimental: as §1, §2, §3, §4, §5, §6, §7, §8, §9

WIDR Colon cancer = test: Antiproliferative SRB assay, WIDR; assay type: cell-based, human; details: vs untreated cells
Text: as §1, §2
(§10) Cell lines WIDR, M19 MEL, A498 and IGROV belong to the currently used anti-cancer screening panel of the National Cancer Institute, USA (Skeham et al., J. Nat. Cancer Inst. 85: 1107-1112, 1990).
as §4, §5, §6, §7, §8, §9

IGROV Ovarian cancer = test: Antiproliferative SRB assay, IGROV; assay type: cell-based, human; details: 37° C. 72 h, vs untreated cells
Text: as §1, §2, §10, §4, §5, §6, §7, §8, §9

M19 MEL Melanoma = test: Antiproliferative SRB assay, M19 MEL; assay type: cell-based, human; details: vs untreated cells
Text: as §1, §2, §10, §4, §5, §6, §7, §8, §9

A498 Renal cancer = test: Antiproliferative SRB assay, A498; assay type: cell-based, human; details: 37° C. 72 h, vs untreated cells
Text: as §1, §2, §10, §4, §5, §6, §7, §8, §9

H226 = test: Antiproliferative SRB assay, H226; assay type: cell-based, human; details: vs untreated cells
Experimental: as §1, §2
HA266 non small cell lung cancer
as §4, §5, §6, §7, §8, §9

human tumor cell lines = test: Cytotoxic activity in human tumor cell lines, overall comparison with paclitaxel; assay type: cell-based
Experimental: as §1, §2, §6
On day 2, 100 μl of the highest drug concentration was added to the wells of column 12 and from there diluted 3-fold to column 3 by serial transfer of 100 μl using an 8 channel micropipette. The final volume of column 3 was adjusted to 200 μl with PBS. Column 2 was used for the blank. To column 1 PBS was added to diminish interfering evaporation.
On day 7 the incubation was terminated by washing the plates twice with PBS. […]
After five washings with tap water, the cells were stained for at least 15 min. with 0.4% SRB, dissolved in 1% acetic acid, and subsequently washed with 1% acetic acid to remove the unbound stain. […] The absorbance was read at 540 nm using an automatic microplate reader (Titertec, Flow Laboratories LtD., Irvine, Scotland). […]

OVCAR-3 cells = test: In vitro antiproliferative effects, OVCAR-3; assay type: cell-based, human
Experimental: The human tumor cell line OVCAR-3 was used. OVCAR is an ovarium carcinoma.
In vitro antiproliferative effects: paclitaxel or paclitaxel prodrugs were dissolved in DMSO to give a concentration of 5 mM. Concentrations were verified by measuring the OD at 226 nm. The antiproliferative effects of drugs and prodrugs were determined with the use of OVCAR-3 cells. Cells in supplemented tissue culture medium (DMEM, 10% fetal calf serum with 50 IU/ml penicillin and 50 microgram/ml streptomycin) were seeded in triplicate in 96-well culture plates (5000/well, 100 microliter). After 24 h, 100 microliter of culture medium containing drug or prodrug was added to give final concentrations ranging from 1 picomolar to 10 micromolar.
The cells were incubated for an additional 72 h, fixed with 10% trichoroacetic acid and stained with sulforhodamine B. The absorbance at 540 nm was read and the antiproliferative effects were expressed as IC50 values, inhibition when compared with control cell growth (Houba et al. Bioconj. Chem. 1996, 7, 606-611).

Row | Water Solubility [2] | degradation to paclitaxel in human plasma [4] | T1/2 Human Plasma [4] | IC50 MCF7 (MCF7 Breast cancer) | IC50 EVSA-T (EVSA-T Breast cancer) | IC50 WIDR (WIDR Colon cancer) | IC50 IGROV (IGROV Ovarian cancer) | IC50 M19 MEL (M19 MEL Melanoma) | IC50 A498 (A498 Renal cancer) | IC50 H226 (H226) | water solubility compared with paclitaxel [2] | water solubility relative to paclitaxel (times more watersoluble) [2] | amount degraded to paclitaxel within 4 hours ([4]; within 4 hours, matrix not printed in the sentence (human plasma per Table I)) | IC50 (OVCAR-3 cells; 37° C. 72 h, vs untreated cells) | Structure (SMILES) | activity in microtubule assembly assays (microtubule assembly) | cytotoxic activity compared with paclitaxel [1] | stability in PBS buffer [3] | cytotoxic activity compared to paclitaxel (human tumor cell lines) | activity against OVCAR-3 cells compared to paclitaxel (OVCAR-3 cells)
1 | – | – | – | – | – | – | – | – | – | – | – | – | – | – | CC(=O)O[C@H]1C(=O)[C@@]2(C)[C@H]([C@H](OC(=O)c3ccccc3)[C@]3(O)C[C@H](OC(=O)[C@H](OC(C)=O)[C@@H](NC(=O)c4ccccc4)c4ccccc4)C(C)=C1C3(C)C)[C@]1(OC(C)=O)CO[C@@H]1C[C@@H]2O [2′-acetyl-paclitaxel] | loss of the ability to promote microtubule assembly | almost the same as for paclitaxel | – | – | –
2 | 3 µg/mL | no degradation to the parent drug | no pacl.^b | 0.39 µg/mL (≈ 0.402 µM) | 0.3 µg/mL (≈ 0.309 µM) | 0.589 µg/mL (≈ 0.607 µM) | 0.241 µg/mL (≈ 0.248 µM) | 1.344 µg/mL (≈ 1.39 µM) | 1.435 µg/mL (≈ 1.48 µM) | 0.706 µg/mL (≈ 0.728 µM) | – | – | – | – | CC(=O)O[C@H]1C(=O)[C@]2(C)[C@@H](OC(=O)CC(O)C(=O)O)C[C@H]3OC[C@@]3(OC(C)=O)[C@H]2[C@H](OC(=O)c2ccccc2)[C@]2(O)C[C@H](OC(=O)[C@H](O)[C@@H](NC(=O)c3ccccc3)c3ccccc3)C(C)=C1C2(C)C (stereo partly shown) [Compound 11, 7-Malylpaclitaxel] | – | – | sufficient stability; also recorded: no degradation to the parent drug | reduced cytotoxic activity | –
3 | – | – | – | – | – | – | – | – | – | – | – | – | – | – | CC(=O)O[C@H]1C(=O)[C@]2(C)[C@@H](OC(C)=O)C[C@H]3OC[C@@]3(OC(C)=O)[C@H]2[C@H](OC(=O)c2ccccc2)[C@]2(O)C[C@H](OC(=O)[C@H](O)[C@@H](NC(=O)c3ccccc3)c3ccccc3)C(C)=C1C2(C)C [7-acetylpaclitaxel] | as active as paclitaxel | – | – | – | –
4 | 600 µg/mL | fast hydrolysis rate | 4 h | <0.003 µg/mL | <0.003 µg/mL | <0.003 µg/mL | 0.233 µg/mL | <0.003 µg/mL | <0.003 µg/mL | <0.003 µg/mL | Best water solubility | sixty | about 500 | 0.8 nM | CC(=O)O[C@H]1C(=O)[C@@]2(C)[C@H]([C@H](OC(=O)c3ccccc3)[C@]3(O)C[C@H](OC(=O)[C@H](OC(=O)CC(O)C(=O)[O-])[C@@H](NC(=O)c4ccccc4)c4ccccc4)C(C)=C1C3(C)C)[C@]1(OC(C)=O)CO[C@@H]1C[C@@H]2O.[Na+] (stereo partly shown) [Compound 6, Sodium salt of 2′-malylpaclitaxel] | – | – | sufficient stability | – | comparable
